The test system of series [1] is apomorphine-induced hypermotility. Description: Antagonism of apomorphine-induced hypermotility. Particulars: Rattus norvegicus, ip, 0.5 h, read-out: Antagonism of apomorphine-induced hypermotility (ED50).
From the text: These experimental conditions produce low baseline locomotor activity suitable for assessing increases in locomotion produced by apomorphine.
Series [2] can be described thus: in vivo. Particulars: rat, ip, 20 min recording, 30 min after drug, read-out: Decrease in spontaneous locomotor activity (ED50). The procedure:
(§1) The propensity of the drugs to induce extrapyramidal side effects was assessed by measuring their potential to induce catalepsy and to antagonize apomorphine-induced stereotyped behaviour and the sedative potential of the drugs was evaluated by their capacity to decrease spontaneous locomotor activity in the rat.
Spontaneous locomotor activity was measured for 20 min immediately after rats were placed in the activity cages, 30 min after drug treatment.

For series [3], the system named is apomorphine-induced stereotypies. In words: Antagonism of apomorphine-induced stereotypies. Type of series: in vivo. Particulars: comparison in words. The procedure:
as §1
(§2) For scoring stereotypies, the following scale was used: 0: asleep; 1: awake; quiet; 2: locomotion, head bobbing; 3: sniffing; 4: licking; 5: chewing/gnawing. For each rat, a global score was calculated by averaging the 3 stereotypy scores obtained at 10 min intervals.

The nature of series [4]: Antagonism of apomorphine-induced stereotypies. Type of series: in vivo. To be noted: rat, in vivo; ip; apomorphine 0.5 mg/kg sc, 30 min after drug. The procedure:
as §1, §2

Series [5] can be described thus: in vivo. To be noted: rat, ip, measured 2 hours and 4 hours after drug, read-out: Induction of catalepsy (ED50). The procedure:
as §1
The occurrence of catalepsy in rats was assessed using the four-cork test. This measurement was performed by placing each paw of the rat on a 2.5 cm high cork (diameter 1.2 cm). Distance between contralateral corks was 8 cm and between ipsilateral corks 13 cm. Catalepsy time was measured for a maximum of 2 min at 2 hours, and 4 hours after ip drug treatment.

The test system of series [6] is d-amphetamine-induced hypermotility. Description: Antagonism of d-amphetamine-induced hypermotility. To be noted: for ED50: Rattus norvegicus, ip, 0.5 h, read-out: Antagonism of d-amphetamine-induced hypermotility (ED50).
Method: d-Amphetamine-induced hyperactivity was recorded for 20 min, 30 min after injection of d-amphetamine (2 mg/kg, ip) immediately after placing rats in the activity cages without habituation according to Gh.

SMILES strings stand for the structures.

In general, ED50 refers to the midpoint of the dose-response relation. As for `CCN1CCCC1CNC(=O)c1cc(S(=O)(=O)CC)c(N)cc1OC` (racemic) [(R,S)-amisulpride, reference compound], the ED50 in series [1] was 30 mg/kg; in series [2] it was 100 mg/kg; in series [4] it was 115 mg/kg; in series [5], > 100 mg/kg; in series [6] it was 3 mg/kg. In series [3], the “Potency at antagonizing apomorphine-induced stereotypies, (S)(-)-amisulpride compared with (R,S)-amisulpride” value is recorded as “equipotent”.

Take `CCN1CCC[C@H]1CNC(=O)c1cc(S(=O)(=O)CC)c(N)cc1OC` [(S)(-)-amisulpride, (S)-(-)-4-amino-N-[(1-ethylpyrrolidin-2-yl)methyl]-5-(ethylsulfonyl)-2-methoxybenzamide]: the ED50 was 15 mg/kg in series [1]; 100 mg/kg in series [2]; 100 mg/kg in series [4]; > 100 mg/kg in series [5]; 1.2 mg/kg in series [6]. Also, the “Potency at antagonizing apomorphine-induced stereotypies, (S)(-)-amisulpride compared with (R,S)-amisulpride” value in series [3] is given as “equipotent”. Moreover, the “Potency in tests predictive of antipsychotic activity, compared with (R,S)-amisulpride” value in series [6] (antagonism of apomorphine or amphetamine hyperlocomotion, in words) is listed as “twice as potent”.

These data come from patent US6187807A, “Methods of use and compositions of (S) (-)-amisulpride” (Sanofi-Synthelabo, priority 1999, dated 2001).
